The values that follow come from patent US20140378679A1, “CRYSTALLINE CARBOHYDRATE DERIVATIVE” (GLYCOM A/S, priority 2008, published 2014).

A short description of data set [1]: Anomeric stability in D2O solution followed by 1H-NMR. The data set is classed as physicochemical. The note with it: 10 mg in 700 μL D2O, room temperature; 1H-NMR recorded immediately and a day later. On the procedure: 10 mg pure α-lactosamine hydrochloride was dissolved in 700 μL D2O, then 1H-NMR spectrum was recorded immediately. A second 1H-NMR spectra was recorded a day later, by which time the clean substance had already anomerized. On first spectrum (FIG. 3, above) at 5.26 ppm the H-1 and at 4.29 ppm the H-1′ can be seen. On the second spectrum (FIG. 3, below) next to the alpha anomer already the beta appears. At 4.78 ppm H-1-beta and at 2.85 ppm H-2-beta can be seen.

As usually defined, the melting point is the temperature, or range, at which the solid turns liquid.

For `Cl.N[C@@H]1[C@@H](O)[C@H](O[C@@H]2O[C@H](CO)[C@H](O)[C@H](O)[C@H]2O)[C@@H](CO)O[C@@H]1O` (hydrate or solvate) [α-lactosamine hydrochloride], the melting point stood at 174 °C.

`Cl.N[C@@H]1[C@@H](O)[C@H](O[C@@H]2O[C@H](CO)[C@H](O)[C@H](O)[C@H]2O)[C@@H](CO)O[C@@H]1O` [α-lactosamine hydrochloride]: the “anomerization of the pure alpha anomer in solution (appearance of beta anomer)” value in data set [1] is “anomerizes at room temperature within one day”.
